# Results published in US7067666B2, “7-substituted camptothecin and camptothecin analogs and methods for producing the same” (priority 2003, dated 2006).
# Test: Solubility in methylene chloride (standard method for ascertaining lipophilicity)
# Type: physicochemical
# Details: not given
# Text: Throughout the present application many CPT compounds have been defined with a substituent X as shown in structure I or II where X is defined and many substituents are shown. With the exception of the simple substituents where R is C1-5 alkyl (which can be prepared by the method of Sawada et al. (Chem. Pharm. Bull. 39, 2574-2580 ([…]))), the other compounds recited herein can not be made by conventional methods, but require, to the best of the inventors' knowledge, the use of the method of the present invention. Using the method of Sawada et al, the yield of alkyl became progressively lower essentially terminating where R is C5 alkyl. All other R substituents shown herein can be made only by the present method involving Grignard reactions, especially analogs like 7-t-butyl-10,11-methylenedioxy-CPT, 7-trimethylsilylmethyl-10,11-methylenedioxy-CPT, 7-naphthylmethyl-10,11-methylenedioxy-CPT, 7-p-fluorophenyl-10,11-methylenedioxy-CPT, 7-p-trifluoromethyl-10,11-methylenedioxy-CPT, and 7-p-tolyl-10,11-methylenedioxy-CPT. A number of compounds made by this method have shown unusual properties. For example, Table 1 gives the methylene chloride solubility of a number of compounds which are made by the methods described by this patent. For example, 7-butyl-10-aminocamptothecin made by this procedure is remarkably lipophilic. 10-Aminocamptothecin has a solubility of —0.2 mg/ml. […] It has been found by several groups that lipophilic substituents at the 7 position have excellent activity in the inhibition of topoisomerase I and in in vitro and in vivo cancer therapy.
# We have utilized a standard method for ascertaining the lipophilicity of a number of camptothecin analogs. This involves the solubility in methylene chloride. This solvent is an excellent solvent for fat-soluble compounds. As can be noted with only one exception, compounds with the 7-butyl substituent are considerably more soluble than those without this constituent. Thus camptothecin is soluble only to the extent of 0.6 mg/ml whereas 7-butyl-camptothecin has a solubility of 20 mg/ml. 10-Amino-camptothecin is soluble only to the extent of 0.2 mg/ml. Very unexpectedly, 7-butyl-10-amino-camptothecin is very soluble at 145 mg/ml. It is also conceivable that camptothecin analogs with 7-pentyl or 7-hexyl substituents or 7-cyclopentyl or 7-cyclohexyl substituents will have increased solubility.
Compound,Solubility [µg/mL],solubility in methylene chloride [µg/mL]
"CC[C@@]1(O)C(=O)OCc2c1cc1n(c2=O)Cc2cc3cc(N)ccc3nc2-1 [Example 10-Amino-CPT, 10-Aminocamptothecin, reference compound]",200,200
"CCCCc1c2c(nc3ccccc13)-c1cc3c(c(=O)n1C2)COC(=O)C3(O)CC (centres unmarked) [Example 7-Butyl-CPT, 7-butyl-camptothecin]",20000,20000
CCC(C)c1c2c(nc3ccccc13)-c1cc3c(c(=O)n1C2)COC(=O)C3(O)CC (centres unmarked) [7-(sec)Butyl-CPT],33000,–
"CC[C@@]1(O)C(=O)OCc2c1cc1n(c2=O)Cc2cc3c(N)cccc3nc2-1 [Example 9-Amino-CPT, 9-Amino-CPT, reference compound]",<30,–
CCCCc1c2c(nc3ccc(OC)cc13)-c1cc3c(c(=O)n1C2)COC(=O)C3(O)CC (centres unmarked) [7-Butyl-10-methoxy-CPT],2000,–
"7-Benzyl-10,11-CPT",1800,–
"CC[C@@]1(O)C(=O)OCc2c1cc1n(c2=O)Cc2cc3cc(OC)ccc3nc2-1 [10-Methoxy-CPT, reference compound]",3000,–
"CCC1(O)C(=O)OCc2c1cc1n(c2=O)Cc2cc3c(N)c4c(cc3nc2-1)OCO4 (centres unmarked) [9-Amino-10,11-MD-CPT, reference compound]",<20,–
"CCC1(O)C(=O)OCc2c1cc1n(c2=O)Cc2cc3c(C)cccc3nc2-1 (centres unmarked) [Example 9-Methyl-CPT, 9-Methyl-CPT, reference compound]",100,–
"CC[C@@]1(O)C(=O)OCc2c1cc1n(c2=O)Cc2c-1nc1cc3c(cc1c2-c1ccc(Cl)cc1)OCO3 [7-p-Chlorophenyl-10,11-MD-CPT, 7-p-Chlorophenyl-10,11-MD-20(S)-Camptothecin]",6300,–
"CCCCc1c2c(nc3ccc(N)cc13)-c1cc3c(c(=O)n1C2)COC(=O)[C@]3(O)CC [7-Butyl-10-Amino-CPT, 7-n-Butyl-10-Amino-20(S)-Camptothecin]",145000,–
"CC[C@@]1(O)C(=O)OCc2c1cc1n(c2=O)Cc2c-1nc1cc3c(cc1c2Cc1ccccc1)OCO3 [7-Benzyl-10,11-MD-CPT, 7-Benzyl-10,11-MD-20(S)-Camptothecin]",1800,–
"CC[C@@]1(O)C(=O)OCc2c1cc1n(c2=O)Cc2c-1nc1cc3c(cc1c2-c1ccc(C)cc1)OCO3 [7-p-Tolyl-10,11-MD-CPT, 7-p-Tolyl-10,11-MD-20(S)-Camptothecin]",4600,–
7-Butyl-9-methyl-CPT,180,–
"CCC1(O)C(=O)OCc2c1cc1n(c2=O)Cc2cc3c([N+](=O)[O-])c4c(cc3nc2-1)OCO4 (centres unmarked) [9-Nitro-10,11-MD-CPT, reference compound]",250,–
"CCCCc1c2c(nc3cc4c(cc13)OCCO4)-c1cc3c(c(=O)n1C2)COC(=O)C3(O)CC (centres unmarked) [7-Butyl-10,11-ED-CPT]",7000,–
"CC[C@@]1(O)C(=O)OCc2c1cc1n(c2=O)Cc2c-1nc1cc3c(cc1c2-c1ccc(F)cc1)OCO3 [7-p-Fluorophenyl-10,11-MD-CPT, 7-p-Fluorophenyl-10,11-MD-20(S)-Camptothecin]",2550,–
"CCCCc1c2c(nc3cc4c(cc13)OCO4)-c1cc3c(c(=O)n1C2)COC(=O)[C@]3(O)CC [7-Butyl-10,11-MD-CPT]",8500,–
"CCC1(O)C(=O)OCc2c1cc1n(c2=O)Cc2cc3cc4c(cc3nc2-1)OCCO4 (centres unmarked) [10,11-ED-CPT, reference compound]",200,–
CCCCc1c2c(nc3ccc(O)cc13)-c1cc3c(c(=O)n1C2)COC(=O)[C@]3(O)CC [7-Butyl-10-OH-CPT],<50,–

# Same assay, conditions: Solubility in CH2Cl2
row,Compound,Solubility [µg/mL]
1,"CC[C@@]1(O)C(=O)OCc2c1cc1n(c2=O)Cc2cc3cc4c(cc3nc2-1)OCO4 [10,11-MD-CPT, 10,11-methylenedioxy-CPT, reference compound]",<8
2,CC[C@@]1(O)C(=O)OCc2c1cc1n(c2=O)Cc2cc3ccccc3nc2-1 [Camptothecin],600
3,"CC[C@@]1(O)C(=O)OCc2c1cc1n(c2=O)Cc2cc3cc(O)ccc3nc2-1 [Example 10-OH-CPT, 10-OH-CPT, reference compound]",<40

# Same assay, conditions: organic solvent or mixture; methylene chloride; read-out: solubility in methylene chloride
row,Compound,Solubility [µg/mL]
1,CC[C@@]1(O)C(=O)OCc2c1cc1n(c2=O)Cc2cc3ccccc3nc2-1 [Camptothecin],600
